Columns and labels:
Assay in all cases: KINOMEscan competition binding
Conditions in all cases: compound 10.0 µM
PRKD2 (human) = PRKD2 (human) (UniProt Q9BZL6)
BTK (human) = BTK (human) (UniProt Q06187)
PKN2 (human) = PKN2 (human) (UniProt Q16513)
CHEK1 (human) = CHEK1 (human) (UniProt O14757)
SLK (human) = SLK (human) (UniProt Q9H2G2)
[1] = system: RET (human), P07949 [M918T]
TEK (human) = TEK (human) (UniProt Q02763)
EPHA4 (human) = EPHA4 (human) (UniProt P54764)
MAPK11 (human) = MAPK11 (human) (UniProt Q15759)
GSK3B (human) = GSK3B (human) (UniProt P49841)
MAPK14 (human) = MAPK14 (human) (UniProt Q16539)
SYK (human) = SYK (human) (UniProt P43405)
PIK3CA (human) = PIK3CA (human) (UniProt P42336)
PDPK1 (human) = PDPK1 (human) (UniProt O15530)
IRAK3 (human) = IRAK3 (human) (UniProt Q9Y616)
DCLK2 (human) = DCLK2 (human) (UniProt Q8N568)
DCLK2 (human), sequence (Q8N568 whole entry, looked up): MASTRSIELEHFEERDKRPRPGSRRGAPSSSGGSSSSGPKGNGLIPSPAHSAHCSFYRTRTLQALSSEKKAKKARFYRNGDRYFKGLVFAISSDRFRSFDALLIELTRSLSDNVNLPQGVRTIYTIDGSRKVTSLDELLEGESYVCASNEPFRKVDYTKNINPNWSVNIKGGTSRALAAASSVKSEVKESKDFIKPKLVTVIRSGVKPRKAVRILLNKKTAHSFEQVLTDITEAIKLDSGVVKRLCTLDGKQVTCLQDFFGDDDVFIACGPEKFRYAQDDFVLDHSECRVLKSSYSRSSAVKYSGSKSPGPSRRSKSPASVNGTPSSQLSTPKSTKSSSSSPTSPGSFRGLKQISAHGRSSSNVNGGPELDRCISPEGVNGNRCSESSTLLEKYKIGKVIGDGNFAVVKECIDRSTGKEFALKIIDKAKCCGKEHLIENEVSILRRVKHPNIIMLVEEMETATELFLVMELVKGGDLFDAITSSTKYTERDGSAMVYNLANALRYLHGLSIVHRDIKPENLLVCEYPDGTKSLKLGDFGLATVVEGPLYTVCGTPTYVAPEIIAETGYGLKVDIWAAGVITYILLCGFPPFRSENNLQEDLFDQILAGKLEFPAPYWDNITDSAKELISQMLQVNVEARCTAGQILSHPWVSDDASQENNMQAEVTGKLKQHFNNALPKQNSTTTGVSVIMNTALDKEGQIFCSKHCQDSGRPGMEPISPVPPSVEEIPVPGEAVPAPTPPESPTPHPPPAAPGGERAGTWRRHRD

ADCK3 (human) = ADCK3 (human) (UniProt Q8NI60)
[2] = system: ABL1 (human), P00519 [H396P]
PDGFRA (human) = PDGFRA (human) (UniProt P16234)
MAP2K6 (human) = MAP2K6 (human) (UniProt P52564)
MAP2K6 (human), sequence (P52564 whole entry, looked up): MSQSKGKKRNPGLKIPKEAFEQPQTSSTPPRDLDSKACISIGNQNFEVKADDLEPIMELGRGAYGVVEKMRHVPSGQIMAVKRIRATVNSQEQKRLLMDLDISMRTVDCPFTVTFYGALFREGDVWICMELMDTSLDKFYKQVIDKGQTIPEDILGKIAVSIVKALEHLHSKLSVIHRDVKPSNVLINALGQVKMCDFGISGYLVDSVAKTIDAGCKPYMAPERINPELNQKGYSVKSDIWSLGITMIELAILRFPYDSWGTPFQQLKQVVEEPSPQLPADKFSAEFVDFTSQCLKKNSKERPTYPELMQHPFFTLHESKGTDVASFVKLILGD

RPS6KA5 KD1 (human) = RPS6KA5 KD1 (human) (UniProt O75582)
STK32C (human) = STK32C (human) (UniProt Q86UX6)
RET (human) = RET (human) (UniProt P07949)
MST4 (human) = MST4 (human) (UniProt Q9P289)
[3] = target: JAK2 JH1 catalytic (human) (UniProt O60674)
STK3 (human) = STK3 (human) (UniProt Q13188)
TXK (human) = TXK (human) (UniProt P42681)
STK32B (human) = STK32B (human) (UniProt Q9NY57)
CDC2L2 (human) = CDC2L2 (human) (UniProt Q9UQ88)
PRKCQ (human) = PRKCQ (human) (UniProt Q04759)
PRKCQ (human), sequence (Q04759 whole entry, looked up): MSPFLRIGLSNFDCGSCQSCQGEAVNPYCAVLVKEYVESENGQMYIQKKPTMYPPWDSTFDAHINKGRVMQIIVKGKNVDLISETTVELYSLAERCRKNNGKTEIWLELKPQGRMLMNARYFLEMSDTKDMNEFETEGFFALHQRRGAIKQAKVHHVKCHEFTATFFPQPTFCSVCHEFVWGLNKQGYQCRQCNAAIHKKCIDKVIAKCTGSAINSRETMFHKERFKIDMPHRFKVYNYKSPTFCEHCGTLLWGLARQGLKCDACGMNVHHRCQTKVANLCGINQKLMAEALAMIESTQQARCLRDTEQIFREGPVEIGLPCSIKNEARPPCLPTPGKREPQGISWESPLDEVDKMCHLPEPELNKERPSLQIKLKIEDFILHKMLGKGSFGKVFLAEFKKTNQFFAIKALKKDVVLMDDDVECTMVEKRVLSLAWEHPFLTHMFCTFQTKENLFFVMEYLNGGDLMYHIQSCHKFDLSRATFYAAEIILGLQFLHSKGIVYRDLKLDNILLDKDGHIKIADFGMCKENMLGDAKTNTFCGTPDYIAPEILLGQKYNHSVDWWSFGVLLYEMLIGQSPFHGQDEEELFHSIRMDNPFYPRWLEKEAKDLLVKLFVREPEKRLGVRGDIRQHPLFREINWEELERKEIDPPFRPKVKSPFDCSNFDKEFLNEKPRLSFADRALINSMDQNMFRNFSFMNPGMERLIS

EPHA2 (human) = EPHA2 (human) (UniProt P29317)
AURKA (human) = AURKA (human) (UniProt O14965)
AURKA (human), sequence (O14965 whole entry, looked up): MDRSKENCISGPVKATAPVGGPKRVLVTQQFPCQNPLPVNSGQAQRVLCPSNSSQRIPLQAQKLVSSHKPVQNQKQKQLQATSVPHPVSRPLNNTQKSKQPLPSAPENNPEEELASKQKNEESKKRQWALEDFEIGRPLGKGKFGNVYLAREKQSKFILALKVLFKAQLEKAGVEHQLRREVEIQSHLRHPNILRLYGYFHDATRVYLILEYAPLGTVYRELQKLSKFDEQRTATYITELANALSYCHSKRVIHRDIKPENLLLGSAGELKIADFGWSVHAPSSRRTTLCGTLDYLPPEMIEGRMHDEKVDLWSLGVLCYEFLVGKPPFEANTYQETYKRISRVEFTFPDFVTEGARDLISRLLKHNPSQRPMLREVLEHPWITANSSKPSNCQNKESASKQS

TEC (human) = TEC (human) (UniProt P42680)
TEC (human), sequence (P42680 whole entry, looked up): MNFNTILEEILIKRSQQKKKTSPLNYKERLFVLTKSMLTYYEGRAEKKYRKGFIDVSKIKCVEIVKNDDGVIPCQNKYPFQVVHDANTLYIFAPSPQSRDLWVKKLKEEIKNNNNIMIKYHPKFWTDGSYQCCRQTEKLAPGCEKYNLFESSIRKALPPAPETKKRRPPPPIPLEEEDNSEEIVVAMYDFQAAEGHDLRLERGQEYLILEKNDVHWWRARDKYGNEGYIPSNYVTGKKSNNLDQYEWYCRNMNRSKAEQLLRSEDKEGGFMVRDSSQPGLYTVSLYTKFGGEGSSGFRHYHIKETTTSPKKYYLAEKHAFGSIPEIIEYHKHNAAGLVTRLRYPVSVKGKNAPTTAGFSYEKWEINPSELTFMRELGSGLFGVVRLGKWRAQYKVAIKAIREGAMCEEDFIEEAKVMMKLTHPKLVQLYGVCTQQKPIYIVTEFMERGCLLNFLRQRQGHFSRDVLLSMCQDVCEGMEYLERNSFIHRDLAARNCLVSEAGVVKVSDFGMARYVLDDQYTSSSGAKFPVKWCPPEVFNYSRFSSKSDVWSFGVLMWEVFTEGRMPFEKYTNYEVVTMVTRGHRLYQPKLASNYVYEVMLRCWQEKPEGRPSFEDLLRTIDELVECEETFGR

NEK9 (human) = NEK9 (human) (UniProt Q8TD19)
MAP2K1 (human) = MAP2K1 (human) (UniProt Q02750)
LIMK2 (human) = LIMK2 (human) (UniProt P53671)
LIMK2 (human), sequence (P53671 whole entry, looked up): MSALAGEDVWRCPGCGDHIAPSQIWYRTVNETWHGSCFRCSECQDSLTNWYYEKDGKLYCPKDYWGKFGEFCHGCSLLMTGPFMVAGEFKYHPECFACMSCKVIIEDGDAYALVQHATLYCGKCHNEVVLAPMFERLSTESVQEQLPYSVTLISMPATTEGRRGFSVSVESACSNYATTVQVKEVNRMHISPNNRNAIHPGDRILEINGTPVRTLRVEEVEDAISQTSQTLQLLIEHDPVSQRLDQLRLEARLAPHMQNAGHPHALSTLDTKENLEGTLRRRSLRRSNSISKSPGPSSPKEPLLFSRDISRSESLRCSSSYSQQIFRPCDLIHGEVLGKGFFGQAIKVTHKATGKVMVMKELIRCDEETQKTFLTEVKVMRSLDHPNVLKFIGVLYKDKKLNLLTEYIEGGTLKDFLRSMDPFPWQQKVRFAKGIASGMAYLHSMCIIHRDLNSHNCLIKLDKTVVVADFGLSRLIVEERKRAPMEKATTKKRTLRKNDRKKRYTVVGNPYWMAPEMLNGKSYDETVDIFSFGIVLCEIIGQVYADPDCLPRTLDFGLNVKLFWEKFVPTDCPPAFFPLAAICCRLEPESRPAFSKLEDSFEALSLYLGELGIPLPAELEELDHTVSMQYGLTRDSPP

MAP3K11 (human) = MAP3K11 (human) (UniProt Q16584)
CAMK4 (human) = CAMK4 (human) (UniProt Q16566)
CDK9 (human) = CDK9 (human) (UniProt P50750)
CDK15 (human) = CDK15 (human) (UniProt Q96Q40)
CDK15 (human), sequence (Q96Q40 whole entry, looked up): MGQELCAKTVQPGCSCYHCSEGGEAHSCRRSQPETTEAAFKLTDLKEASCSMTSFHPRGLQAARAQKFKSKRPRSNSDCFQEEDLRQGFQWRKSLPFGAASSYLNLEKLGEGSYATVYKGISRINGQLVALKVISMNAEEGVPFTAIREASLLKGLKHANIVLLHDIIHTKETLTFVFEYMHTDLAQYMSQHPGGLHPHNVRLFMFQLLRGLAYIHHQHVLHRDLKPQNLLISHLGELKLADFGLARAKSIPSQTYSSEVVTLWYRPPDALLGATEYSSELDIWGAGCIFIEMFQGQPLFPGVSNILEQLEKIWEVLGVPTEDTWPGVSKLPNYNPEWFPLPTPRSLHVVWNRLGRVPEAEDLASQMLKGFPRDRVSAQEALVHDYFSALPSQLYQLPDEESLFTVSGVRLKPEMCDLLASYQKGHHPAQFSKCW

[4] = system: ABL1 (human), P00519 [T315I]
[5] = system: ABL1 (human), P00519 [F317I]

TEK (human), sequence (Q02763 whole entry, looked up): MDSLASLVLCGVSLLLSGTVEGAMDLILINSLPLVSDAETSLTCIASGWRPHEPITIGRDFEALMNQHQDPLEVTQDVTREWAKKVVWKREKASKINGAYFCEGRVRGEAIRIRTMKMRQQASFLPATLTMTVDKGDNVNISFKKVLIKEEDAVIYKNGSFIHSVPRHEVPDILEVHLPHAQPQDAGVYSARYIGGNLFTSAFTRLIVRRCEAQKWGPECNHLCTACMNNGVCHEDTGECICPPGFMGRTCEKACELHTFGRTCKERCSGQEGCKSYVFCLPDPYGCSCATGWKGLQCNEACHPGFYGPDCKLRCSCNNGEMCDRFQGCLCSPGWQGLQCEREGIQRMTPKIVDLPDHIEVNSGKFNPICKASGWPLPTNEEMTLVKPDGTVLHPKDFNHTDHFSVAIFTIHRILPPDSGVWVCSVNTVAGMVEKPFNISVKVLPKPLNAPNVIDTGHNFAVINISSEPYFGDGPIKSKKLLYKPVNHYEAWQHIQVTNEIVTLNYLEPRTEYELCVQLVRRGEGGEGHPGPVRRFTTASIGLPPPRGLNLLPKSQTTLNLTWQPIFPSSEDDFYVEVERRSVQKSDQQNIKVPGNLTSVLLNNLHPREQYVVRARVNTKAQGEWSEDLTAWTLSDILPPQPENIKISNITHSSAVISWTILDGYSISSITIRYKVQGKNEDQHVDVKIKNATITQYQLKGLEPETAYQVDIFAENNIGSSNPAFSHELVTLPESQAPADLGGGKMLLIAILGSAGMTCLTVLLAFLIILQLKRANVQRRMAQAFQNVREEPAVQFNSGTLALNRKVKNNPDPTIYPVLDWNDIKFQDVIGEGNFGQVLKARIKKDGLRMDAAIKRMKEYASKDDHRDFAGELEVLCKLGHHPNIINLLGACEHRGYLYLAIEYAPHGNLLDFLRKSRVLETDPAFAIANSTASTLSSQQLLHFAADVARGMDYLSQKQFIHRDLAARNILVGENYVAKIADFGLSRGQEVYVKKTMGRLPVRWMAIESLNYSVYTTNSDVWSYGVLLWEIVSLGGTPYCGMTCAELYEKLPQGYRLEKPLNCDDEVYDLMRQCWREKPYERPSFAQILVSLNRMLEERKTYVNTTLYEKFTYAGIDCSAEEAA

`COc1cc(N2CCC(O)CC2)ccc1Nc1ncc2c(n1)N1CCc3cccc(c31)C(=O)N2C` gave a kinase still bound, per cent of control (PRKD2 (human)) of 45%, a kinase still bound, per cent of control (BTK (human)) of 78% and a kinase still bound, per cent of control (PKN2 (human)) of 100%. For the same molecule, the kinase still bound, per cent of control (CHEK1 (human)) was 100%, the kinase still bound, per cent of control (SLK (human)) was 95% and the kinase still bound, per cent of control [1] was 100%. For the same molecule, the kinase still bound, per cent of control (TEK (human)) was 98%, the kinase still bound, per cent of control (EPHA4 (human)) was 98% and the kinase still bound, per cent of control (MAPK11 (human)) was 74%. For the same molecule, the kinase still bound, per cent of control (GSK3B (human)) was 91%, the kinase still bound, per cent of control (MAPK14 (human)) was 61% and the kinase still bound, per cent of control (SYK (human)) was 100%. For the same molecule, the kinase still bound, per cent of control (PIK3CA (human)) was 84%, the kinase still bound, per cent of control (PDPK1 (human)) was 100% and the kinase still bound, per cent of control (IRAK3 (human)) was 84%. For the same molecule, the kinase still bound, per cent of control (DCLK2 (human)) was 0.4%, the kinase still bound, per cent of control (ADCK3 (human)) was 78% and the kinase still bound, per cent of control [2] was 100%. It also gave a kinase still bound, per cent of control (PDGFRA (human)) of 98%, a kinase still bound, per cent of control (MAP2K6 (human)) of 100% and a kinase still bound, per cent of control (RPS6KA5 KD1 (human)) of 59%. For the same molecule, the kinase still bound, per cent of control (STK32C (human)) was 75%, the kinase still bound, per cent of control (RET (human)) was 100% and the kinase still bound, per cent of control (MST4 (human)) was 99%. The kinase still bound, per cent of control [3] was 69%, the kinase still bound, per cent of control (STK3 (human)) was 84% and the kinase still bound, per cent of control (TXK (human)) was 100%. For the same molecule, the kinase still bound, per cent of control (STK32B (human)) was 100%, the kinase still bound, per cent of control (CDC2L2 (human)) was 100% and the kinase still bound, per cent of control (PRKCQ (human)) was 97%. It also gave a kinase still bound, per cent of control (EPHA2 (human)) of 95%, a kinase still bound, per cent of control (AURKA (human)) of 23% and a kinase still bound, per cent of control (TEC (human)) of 100%. It also gave a kinase still bound, per cent of control (NEK9 (human)) of 77%, a kinase still bound, per cent of control (MAP2K1 (human)) of 100% and a kinase still bound, per cent of control (LIMK2 (human)) of 100%. For the same molecule, the kinase still bound, per cent of control (MAP3K11 (human)) was 100%, the kinase still bound, per cent of control (CAMK4 (human)) was 100% and the kinase still bound, per cent of control (CDK9 (human)) was 100%. For the same molecule, the kinase still bound, per cent of control (CDK15 (human)) was 99%, the kinase still bound, per cent of control [4] was 100% and the kinase still bound, per cent of control [5] was 88%.

Work on `O=C1NC(=O)/C(=C/c2c[nH]c(=O)c(-c3ccc(N4CCNCC4)nc3)c2)S1` yielded a kinase still bound, per cent of control (PRKD2 (human)) of 8.3%, a kinase still bound, per cent of control (BTK (human)) of 51% and a kinase still bound, per cent of control (PKN2 (human)) of 41%. It also gave a kinase still bound, per cent of control (CHEK1 (human)) of 2.4%, a kinase still bound, per cent of control (SLK (human)) of 29% and a kinase still bound, per cent of control [1] of 46%. It also gave a kinase still bound, per cent of control (TEK (human)) of 100%, a kinase still bound, per cent of control (EPHA4 (human)) of 99% and a kinase still bound, per cent of control (MAPK11 (human)) of 82%. For the same molecule, the kinase still bound, per cent of control (GSK3B (human)) was 53%, the kinase still bound, per cent of control (MAPK14 (human)) was 100% and the kinase still bound, per cent of control (SYK (human)) was 100%. It also gave a kinase still bound, per cent of control (PIK3CA (human)) of 49%, a kinase still bound, per cent of control (PDPK1 (human)) of 100% and a kinase still bound, per cent of control (IRAK3 (human)) of 100%. The kinase still bound, per cent of control (DCLK2 (human)) was 67%, the kinase still bound, per cent of control (ADCK3 (human)) was 76% and the kinase still bound, per cent of control [2] was 96%. The kinase still bound, per cent of control (PDGFRA (human)) was 99%, the kinase still bound, per cent of control (MAP2K6 (human)) was 100% and the kinase still bound, per cent of control (RPS6KA5 KD1 (human)) was 100%. It also gave a kinase still bound, per cent of control (STK32C (human)) of 100%, a kinase still bound, per cent of control (RET (human)) of 70% and a kinase still bound, per cent of control (MST4 (human)) of 80%. The kinase still bound, per cent of control [3] was 14%, the kinase still bound, per cent of control (STK3 (human)) was 90% and the kinase still bound, per cent of control (TXK (human)) was 80%. For the same molecule, the kinase still bound, per cent of control (STK32B (human)) was 100%, the kinase still bound, per cent of control (CDC2L2 (human)) was 95% and the kinase still bound, per cent of control (PRKCQ (human)) was 44%. It also gave a kinase still bound, per cent of control (EPHA2 (human)) of 100%, a kinase still bound, per cent of control (AURKA (human)) of 100% and a kinase still bound, per cent of control (TEC (human)) of 84%. For the same molecule, the kinase still bound, per cent of control (NEK9 (human)) was 71%, the kinase still bound, per cent of control (MAP2K1 (human)) was 55% and the kinase still bound, per cent of control (LIMK2 (human)) was 82%. For the same molecule, the kinase still bound, per cent of control (MAP3K11 (human)) was 100%, the kinase still bound, per cent of control (CAMK4 (human)) was 100% and the kinase still bound, per cent of control (CDK9 (human)) was 100%. It also gave a kinase still bound, per cent of control (CDK15 (human)) of 50%, a kinase still bound, per cent of control [4] of 57% and a kinase still bound, per cent of control [5] of 100%.
